From patent US6992079B2, “Substituted 11-phenyl-dibenzazepine compounds useful for the treatment or prevention of diseases characterized by abnormal cell proliferation” (President Fellows of Harvard College, priority 1997, dated 2006)
Like-named read-outs stand apart in the source and are kept apart here.

Columns and labels:
SF-268 = test: In-Vitro Testing SRB panel: CNS Cancer; assay type: cell-based
BT-549 = test: In-Vitro Testing SRB panel: Breast Cancer; assay type: cell-based
HT29 = test: In-Vitro Testing SRB panel: Colon Cancer; assay type: cell-based
[1] = Preliminary toxicology, subcutaneous injection for 14 days; assay type: in vivo, CD-1 female mice; conditions: CD-1 female mice; 80 mg/kg/day s.c. 14 days
Protocol: The toxicological effects of CLT, and compounds 28, 30 and 31 were tested in CD-1 female mice. A dose of 80 mg/kg/day was given to each mouse via subcutaneous injection for a period of 14 days. Preliminary toxicological data was determined by measuring body weight, gross pathology of organs blood chemistry and histology. The vehicle used was DMF 12%+2% Tween 20 88%.

SN12C = test: In-Vitro Testing SRB panel: Renal Cancer; assay type: cell-based
HS 578T = test: In-Vitro Testing SRB panel: Breast Cancer; assay type: cell-based; conditions: HS 578T
[2] = In-Vitro Testing SRB panel: Renal Cancer; assay type: cell-based
M14 = test: In-Vitro Testing SRB panel: Melanoma; assay type: cell-based
LOX IMVI = test: In-Vitro Testing SRB panel: Melanoma; assay type: cell-based
RPMI-8226 = test: In-Vitro Testing SRB panel: Leukemia; assay type: cell-based
TK-10 = test: In-Vitro Testing SRB panel: Renal Cancer; assay type: cell-based
UACC-257 = test: In-Vitro Testing SRB panel: Melanoma; assay type: cell-based
RL-60 (TS) = test: In-Vitro Testing SRB panel: Leukemia; assay type: cell-based
SNB-19 = test: In-Vitro Testing SRB panel: CNS Cancer; assay type: cell-based
NCI-H23 = assay type: cell-based
ROP-92 = assay type: cell-based
ROP-62 = assay type: cell-based
[3] = Homo sapiens, read-out: LC50 (the source's name)

SMILES: COc1ccc2c(c1)CN(C(=O)c1ccc([N+](=O)[O-])cc1)c1ccc(Cl)cc1C2c1ccccc1Cl (stereo not drawn) [Compound 30]
- GI50 (SF-268; Homo sapiens, SF-268): 3.08 µM
- CC50 (SF-268; Homo sapiens, SF-268, read-out: LC50 (the source's name)): > 100 µM
- TGI (SF-268; SF-268): >1.00E−04 Molar
- Percent Growth (SF-268; SF-268, Log10 concentration −4.0 Molar): 21%
- Percent Growth (SF-268; SF-268, Log10 concentration −5.0 Molar): 30%
- Percent Growth (SF-268; SF-268, Log10 concentration −6.0 Molar): 69%
- Percent Growth (SF-268; SF-268, Log10 concentration −7.0 Molar): 115%
- Percent Growth (SF-268; SF-268, Log10 concentration −8.0 Molar): 104%
- TGI (BT-549; BT-549): >1.00E−04 Molar
- Percent Growth (BT-549; BT-549, Log10 concentration −4.0 Molar): 61%
- Percent Growth (BT-549; BT-549, Log10 concentration −5.0 Molar): 75%
- Percent Growth (BT-549; BT-549, Log10 concentration −6.0 Molar): 90%
- Percent Growth (BT-549; BT-549, Log10 concentration −7.0 Molar): 99%
- Percent Growth (BT-549; BT-549, Log10 concentration −8.0 Molar): 95%
- GI50 (BT-549; Homo sapiens, BT-549): > 100 µM
- CC50 (BT-549; Homo sapiens, BT-549, read-out: LC50 (the source's name)): > 100 µM
- TGI (HT29; HT29): >1.00E−04 Molar
- Percent Growth (HT29; HT29, Log10 concentration −4.0 Molar): 20%
- Percent Growth (HT29; HT29, Log10 concentration −5.0 Molar): 22%
- Percent Growth (HT29; HT29, Log10 concentration −6.0 Molar): 70%
- Percent Growth (HT29; HT29, Log10 concentration −7.0 Molar): 93%
- Percent Growth (HT29; HT29, Log10 concentration −8.0 Molar): 91%
- GI50 (HT29; Homo sapiens, HT-29): 2630 nM
- CC50 (HT29; Homo sapiens, HT-29, HT29, read-out: LC50 (the source's name)): > 100 µM
- Body Weight Change [1]: 108%
- Liver Weight [1]: 1.52 ± 0.23 g
- RBC [1]: 8.2 ± 0.2 10^6/mm^3
- WBC [1]: 6.4 ± 1.7 10^3/mm^3
- WBC, RBC, BUN and creatine levels [1]: no differences were found
- TGI (SN12C): >1.00E−04 Molar
- GI50 (SN12C; Homo sapiens): 6.32 µM
- CC50 (SN12C; [3]): > 100 µM
- Percent Growth (SN12C; Log10 concentration −4.0 Molar): 45%
- Percent Growth (SN12C; Log10 concentration −5.0 Molar): 41%
- Percent Growth (SN12C; Log10 concentration −6.0 Molar): 87%
- Percent Growth (SN12C; Log10 concentration −7.0 Molar): 90%
- Percent Growth (SN12C; Log10 concentration −8.0 Molar): 100%
- TGI (HS 578T): >1.00E−04 Molar
- Percent Growth (HS 578T; Log10 concentration −4.0 Molar): 11%
- Percent Growth (HS 578T; Log10 concentration −5.0 Molar): 51%
- Percent Growth (HS 578T; Log10 concentration −6.0 Molar): 30%
- Percent Growth (HS 578T; Log10 concentration −7.0 Molar): 91%
- Percent Growth (HS 578T; Log10 concentration −8.0 Molar): 87%
- CC50 (HS 578T; [3]): > 100 µM
- GI50 ([2]; Homo sapiens): 7.81 µM
- CC50 ([2]; Homo sapiens, OO-31, read-out: LC50 (the source's name)): > 100 µM
- TGI ([2]; OO-31): >1.00E−04 Molar
- Percent Growth ([2]; OO-31, Log10 concentration −4.0 Molar): 43%
- Percent Growth ([2]; OO-31, Log10 concentration −5.0 Molar): 43%
- Percent Growth ([2]; OO-31, Log10 concentration −6.0 Molar): 107%
- Percent Growth ([2]; OO-31, Log10 concentration −7.0 Molar): 94%
- Percent Growth ([2]; OO-31, Log10 concentration −8.0 Molar): 98%
- GI50 (M14; Homo sapiens, M14): 45 nM
- CC50 (M14; Homo sapiens, M14, read-out: LC50 (the source's name)): > 100 µM
- TGI (M14; M14): >1.00E−04 Molar
- Percent Growth (M14; M14, Log10 concentration −4.0 Molar): 30%
- Percent Growth (M14; M14, Log10 concentration −5.0 Molar): 37%
- Percent Growth (M14; M14, Log10 concentration −6.0 Molar): 75%
- Percent Growth (M14; M14, Log10 concentration −7.0 Molar): 93%
- Percent Growth (M14; M14, Log10 concentration −8.0 Molar): 99%
- TGI (LOX IMVI): >1.00E−04 Molar
- GI50 (LOX IMVI; Homo sapiens): 4.3 µM
- CC50 (LOX IMVI; [3]): > 100 µM
- Percent Growth (LOX IMVI; Log10 concentration −4.0 Molar): 35%
- Percent Growth (LOX IMVI; Log10 concentration −5.0 Molar): 26%
- Percent Growth (LOX IMVI; Log10 concentration −6.0 Molar): 91%
- Percent Growth (LOX IMVI; Log10 concentration −7.0 Molar): 103%
- Percent Growth (LOX IMVI; Log10 concentration −8.0 Molar): 98%
- GI50 (RPMI-8226; Homo sapiens, RPMI-8226): 953 nM
- CC50 (RPMI-8226; Homo sapiens, RPMI-8226, read-out: LC50 (the source's name)): > 100 µM
- TGI (RPMI-8226; RPMI-8226): >1.00E−04 Molar
- Percent Growth (RPMI-8226; RPMI-8226, Log10 concentration −4.0 Molar): 36%
- Percent Growth (RPMI-8226; RPMI-8226, Log10 concentration −5.0 Molar): 30%
- Percent Growth (RPMI-8226; RPMI-8226, Log10 concentration −6.0 Molar): 49%
- Percent Growth (RPMI-8226; RPMI-8226, Log10 concentration −7.0 Molar): 100%
- Percent Growth (RPMI-8226; RPMI-8226, Log10 concentration −8.0 Molar): 86%
- GI50 (TK-10; Homo sapiens, TK-10): 27 µM
- CC50 (TK-10; Homo sapiens, TK-10, read-out: LC50 (the source's name)): > 100 µM
- TGI (TK-10; TK-10): >1.00E−04 Molar
- Percent Growth (TK-10; TK-10, Log10 concentration −4.0 Molar): 41%
- Percent Growth (TK-10; TK-10, Log10 concentration −5.0 Molar): 57%
- Percent Growth (TK-10; TK-10, Log10 concentration −6.0 Molar): 93%
- Percent Growth (TK-10; TK-10, Log10 concentration −7.0 Molar): 101%
- Percent Growth (TK-10; TK-10, Log10 concentration −8.0 Molar): 100%
- GI50 (UACC-257; Homo sapiens, UACC-257): 1860 nM
- CC50 (UACC-257; Homo sapiens, UACC-257, read-out: LC50 (the source's name)): > 100 µM
- TGI (UACC-257; UACC-257): >1.00E−04 Molar
- Percent Growth (UACC-257; UACC-257, Log10 concentration −4.0 Molar): 13%
- Percent Growth (UACC-257; UACC-257, Log10 concentration −5.0 Molar): 20%
- Percent Growth (UACC-257; UACC-257, Log10 concentration −6.0 Molar): 61%
- Percent Growth (UACC-257; UACC-257, Log10 concentration −7.0 Molar): 91%
- Percent Growth (UACC-257; UACC-257, Log10 concentration −8.0 Molar): 99%
- GI50 (RL-60 (TS); Homo sapiens): 297 nM
- CC50 (RL-60 (TS); Homo sapiens, RL-60 (TB), read-out: LC50 (the source's name)): > 100 µM
- TGI (RL-60 (TS); RL-60 (TB)): >1.00E−04 Molar
- Percent Growth (RL-60 (TS); RL-60 (TB), Log10 concentration −4.0 Molar): 29%
- Percent Growth (RL-60 (TS); RL-60 (TB), Log10 concentration −5.0 Molar): 22%
- Percent Growth (RL-60 (TS); RL-60 (TB), Log10 concentration −6.0 Molar): 35%
- Percent Growth (RL-60 (TS); RL-60 (TB), Log10 concentration −7.0 Molar): 64%
- Percent Growth (RL-60 (TS); RL-60 (TB), Log10 concentration −8.0 Molar): 94%
- GI50 (SNB-19; Homo sapiens, SNB-19): 8.22 µM
- CC50 (SNB-19; Homo sapiens, SNB-19, read-out: LC50 (the source's name)): > 100 µM
- TGI (SNB-19; SNB-19): >1.00E−04 Molar
- Percent Growth (SNB-19; SNB-19, Log10 concentration −4.0 Molar): 37%
- Percent Growth (SNB-19; SNB-19, Log10 concentration −5.0 Molar): 47%
- Percent Growth (SNB-19; SNB-19, Log10 concentration −6.0 Molar): 86%
- Percent Growth (SNB-19; SNB-19, Log10 concentration −7.0 Molar): 90%
- Percent Growth (SNB-19; SNB-19, Log10 concentration −8.0 Molar): 95%
- GI50 (NCI-H23; Homo sapiens, NCI-H23): > 100 µM
- CC50 (NCI-H23; Homo sapiens, NCI-H23, read-out: LC50 (the source's name)): > 100 µM
- TGI (NCI-H23; NCI-H23): >1.00E−04 Molar
- Percent Growth (NCI-H23; NCI-H23, Log10 concentration −4.0 Molar): 55%
- Percent Growth (NCI-H23; NCI-H23, Log10 concentration −5.0 Molar): 60%
- Percent Growth (NCI-H23; NCI-H23, Log10 concentration −6.0 Molar): 84%
- Percent Growth (NCI-H23; NCI-H23, Log10 concentration −7.0 Molar): 97%
- Percent Growth (NCI-H23; NCI-H23, Log10 concentration −8.0 Molar): 93%
- GI50 (ROP-92; Homo sapiens): > 100 µM
- CC50 (ROP-92; Homo sapiens, ROP-92, read-out: LC50 (the source's name)): > 100 µM
- TGI (ROP-92; ROP-92): >1.00E−04 Molar
- Percent Growth (ROP-92; ROP-92, Log10 concentration −4.0 Molar): 58%
- Percent Growth (ROP-92; ROP-92, Log10 concentration −5.0 Molar): 69%
- Percent Growth (ROP-92; ROP-92, Log10 concentration −6.0 Molar): 93%
- Percent Growth (ROP-92; ROP-92, Log10 concentration −7.0 Molar): 102%
- Percent Growth (ROP-92; ROP-92, Log10 concentration −8.0 Molar): 91%
- GI50 (ROP-62; Homo sapiens): > 100 µM
- CC50 (ROP-62; Homo sapiens, ROP-62, read-out: LC50 (the source's name)): > 100 µM
- TGI (ROP-62; ROP-62): >1.00E−04 Molar
- Percent Growth (ROP-62; ROP-62, Log10 concentration −4.0 Molar): 50%
- Percent Growth (ROP-62; ROP-62, Log10 concentration −5.0 Molar): 67%
- Percent Growth (ROP-62; ROP-62, Log10 concentration −6.0 Molar): 95%
- Percent Growth (ROP-62; ROP-62, Log10 concentration −7.0 Molar): 102%
- Percent Growth (ROP-62; ROP-62, Log10 concentration −8.0 Molar): 96%
